Among the data in PMC4804213, “Human EAG channels are directly modulated by PIP2 as revealed by electrophysiological and optical interference investigations” (Scientific Reports, 2016) are IC50 and Kd values, retold here.

As a reminder, the IC50 is the concentration at which inhibition is half-maximal. A higher IC50 goes with weaker potency in that assay. As a reminder, the Kd is the free concentration of one partner at which half of the binding sites on the other are occupied at equilibrium, for simple one-to-one binding.

Assay [1] addresses T1, hEAG1 (Kv10.1, KCNH1) (Homo sapiens, UniProt O95259).
T1 construct: full length; untagged in pcDNA3.1 transiently in CHO cells (patch clamp); tetramer
T1 sequence (O95259 1-962 isoform O95259-2): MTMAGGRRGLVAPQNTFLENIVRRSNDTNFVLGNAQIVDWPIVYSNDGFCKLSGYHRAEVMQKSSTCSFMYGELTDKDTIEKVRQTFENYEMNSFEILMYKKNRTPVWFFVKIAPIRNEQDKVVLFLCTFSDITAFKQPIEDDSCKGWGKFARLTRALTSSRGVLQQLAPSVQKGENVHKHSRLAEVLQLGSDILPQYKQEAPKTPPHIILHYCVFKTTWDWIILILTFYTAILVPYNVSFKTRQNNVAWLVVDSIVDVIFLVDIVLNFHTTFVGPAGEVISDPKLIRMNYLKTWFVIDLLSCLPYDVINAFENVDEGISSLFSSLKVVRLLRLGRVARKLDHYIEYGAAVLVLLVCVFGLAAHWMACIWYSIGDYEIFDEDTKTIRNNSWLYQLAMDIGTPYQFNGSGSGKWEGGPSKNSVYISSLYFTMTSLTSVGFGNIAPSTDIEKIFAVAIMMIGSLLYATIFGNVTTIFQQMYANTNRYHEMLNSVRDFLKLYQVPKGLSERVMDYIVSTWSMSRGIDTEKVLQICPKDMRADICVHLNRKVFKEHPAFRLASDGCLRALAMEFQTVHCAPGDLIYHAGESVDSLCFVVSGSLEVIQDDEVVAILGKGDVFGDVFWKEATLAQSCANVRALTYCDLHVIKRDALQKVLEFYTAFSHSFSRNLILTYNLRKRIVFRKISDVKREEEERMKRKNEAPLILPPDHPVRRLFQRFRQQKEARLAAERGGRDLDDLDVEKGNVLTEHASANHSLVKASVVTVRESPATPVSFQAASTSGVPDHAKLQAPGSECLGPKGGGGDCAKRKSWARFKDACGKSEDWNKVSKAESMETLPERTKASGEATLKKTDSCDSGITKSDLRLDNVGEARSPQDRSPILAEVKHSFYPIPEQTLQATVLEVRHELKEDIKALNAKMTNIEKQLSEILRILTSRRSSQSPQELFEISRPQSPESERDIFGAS
Briefly: patch clamp, peak current inhibition at […] mV, Hill fit. It is filed as cell-based. For orientation: In patch-clamp work, channel activity is measured electrically.

In assay [2] the target is T1, hEAG1 (Kv10.1, KCNH1). As to the kind of experiment: bio-layer interferometry, biotinylated FLAG-tagged channel on streptavidin sensor, Hill fit. The note with it: 200-s cumulative application epochs; PBS, 0.02% Tween-20, 0.1% BSA, pH 7.4; room temperature; brain-derived lipid of mixed acyl chains. Type of assay: binding. For orientation: In BLI a coated tip is dipped into the sample, and binding shifts an interference pattern.

Where two headings read alike, the source gives them in different places.

With `CCCCCCCC(=O)OC[C@H](COP(=O)(O)O[C@@H]1[C@H](O)[C@H](O)[C@@H](OP(=O)(O)O)[C@H](OP(=O)(O)O)[C@H]1O)OC(=O)CCCCCCC` [diC8-PIP2], the IC50 in assay [1] was found to be 18600 ± 600 nM.
Compound PIP2 registered an IC50 in assay [1] (200-s application to the intracellular side, peak current at 40 mV, room temperature, brain-derived lipid of mixed acyl chains) of 350 ± 10 nM. Further, binding in assay [2] was characterised by a dissociation constant (Kd) of 350 ± 40 nM.
